In patent US20230339835A1, “2,3,5-TRIMETHYL-6-NONYLCYCLOHEXA-2,5-DIENE-1,4-DIONE FOR SUPPRESSING AND TREATING ALPHA-SYNUCLEINOPATHIES, TAUOPATHIES, AND OTHER DISORDERS” (PTC THERAPEUTICS, INC., priority 2018, published 2023):

What was measured:
[1] = Solvent screening for recrystallization (solubility of C9); assay type: physicochemical; settings: for Hot to RT result: allowed to cool to RT; for RT to Cold result: cooled to 0° C.; for Hot Result: heated to approximately 45-50° C.
Method: 100 mg of C9 was placed in test tubes and solvent added and any change noted. Samples were then heated briefly with a heat gun (heating to approximately 45-50° C.), the solubility noted, allowed to cool to RT and solubility noted, then cooled to 0° C. and the solubility noted.

[2] = Light sensitivity of C9 solutions; assay type: physicochemical; settings: room light wavelengths <450 nm
Text: The compounds of this invention can be prepared from readily available starting materials using general methods and procedures that will be apparent to one skilled in the art in view of the disclosure provided herein. It will be appreciated that where typical or preferred process conditions (i.e., reaction temperatures, times, mole ratios of reactants, solvents, pressures, etc.) are given, other process conditions can also be used unless otherwise stated. Optimum reaction conditions may vary with the particular reactants or solvent used, but such conditions can be determined by one skilled in the art by routine optimization procedures. […] If amber lighting is not available, then appropriate controls should be used to minimize solutions to light exposure e.g. aluminum foil wrapping, amber glassware
Test solutions on 1 g scale determined that 75-85% IPA/water gave good solubility (˜10:1 vol:wt), fine crystals that were filterable and solutions that could be heated and cooled to produce a predictable melt/crystallization. […] A hot filtration was required as a brown, material formed during crystallization when the solution was left exposed to room light for >1 h. This was only observed with the solution was exposed to light. Recovery was 92.7% of fine needles and UHPLC analysis of the supernatant was 91% a/a vs 99% for the solid indicating the supernatant was removing impurities. […]

[3] = system: AD patient fibroblasts ND34730; assay: Rescue of AD patient fibroblasts from BSO plus iron-induced oxidative stress, ND34730; assay type: cell-based; settings: Homo sapiens, Fibroblast
Method: An initial screen was performed to identify the effectiveness of compounds for the amelioration of PD and AD. Test samples and solvent controls were tested for their ability to rescue PD and AD fibroblasts stressed by addition of L-buthionine-(S,R)-sulfoximine (BSO, a specific inhibitor of GSH synthetase) plus iron (e.g. iron citrate), in a similar manner as that described in Jauslin et al., Hum. Mol. Genet. 11(24):3055 (2002), Jauslin et al., FASEB J. 17:1972-4 (2003), and International Patent Application WO 2004/003565. This specific BSO-mediated cell death was prevented or ameliorated by administration of compounds described herein.
The AD experiments were performed as follows. PD experiments were performed in a similar manner; certain specific conditions are noted below in Table 1A.
MEM (a medium enriched in amino acids and vitamins) and Medium 199 (M199) with Earle's Balanced Salts (EBS), without phenol red, were purchased from Invitrogen. Fetal Calf Serum was obtained from Corning. […]
100 microliters of Calcein AM (1 microM) in PBS+Ca+Mg was then added to each well. […] After that time fluorescence (excitation/emission wavelengths of 485 nm and 525 nm, respectively) was read on a Spectramax fluorescence reader. Data were analyzed using standard four-parameter curve fit algorithms (XLFit or Prism) to determine the EC50 concentration for each compound.

[4] = 70% IPA/H2O, approx conc. 100 mg/mL
[5] = 80% EtOH, approx conc. 50 mg/mL
[6] = 80% EtOH, approx conc. 100 mg/mL
[7] = 95% EtOH, approx conc. 100 mg/mL

CCCCCCCCCC1=C(C)C(=O)C(C)=C(C)C1=O [Compound C9, 2,3,5-trimethyl-6-nonylcyclohexa-2,5-diene-1,4-dione]
RT result [1, 4]: slightly | Hot to RT result [1, 4]: slightly soluble | RT to Cold result [1, 4]: slightly soluble- | Hot Result [1, 4]: mostly | RT result [1, 5]: partially | Hot to RT result [1, 5]: partially | RT to Cold result [1, 5]: slightly | Hot Result [1, 5]: melted | RT result [1, 6]: partially | Hot to RT result [1, 6]: partially soluble | RT to Cold result [1, 6]: slightly soluble | Hot Result [1, 6]: melted | RT result [1, 7]: partially | Hot to RT result [1, 7]: partially soluble | RT to Cold result [1, 7]: mostly insoluble | Hot Result [1, 7]: soluble | RT result ([1]; EtOH, approx conc. 100 mg/mL): partially | Hot to RT result ([1]; EtOH, approx conc. 100 mg/mL): slightly soluble | RT to Cold result ([1]; EtOH, approx conc. 100 mg/mL): partially soluble- | Hot Result ([1]; EtOH, approx conc. 100 mg/mL): soluble | RT result ([1]; IPA, approx conc. 100 mg/mL): soluble | Hot to RT result ([1]; IPA, approx conc. 100 mg/mL): soluble | RT to Cold result ([1]; IPA, approx conc. 100 mg/mL): partially soluble- | Hot Result ([1]; IPA, approx conc. 100 mg/mL): soluble | RT result ([1]; MeCN, approx conc. 100 mg/mL): soluble | Hot to RT result ([1]; MeCN, approx conc. 100 mg/mL): soluble | RT to Cold result ([1]; MeCN, approx conc. 100 mg/mL): mostly soluble- | Hot Result ([1]; MeCN, approx conc. 100 mg/mL): soluble | RT result ([1]; MeOH, approx conc. 100 mg/mL): slightly | Hot to RT result ([1]; MeOH, approx conc. 100 mg/mL): slightly soluble | RT to Cold result ([1]; MeOH, approx conc. 100 mg/mL): insoluble-long needles | Hot Result ([1]; MeOH, approx conc. 100 mg/mL): soluble | RT result ([1]; THF, approx conc. 100 mg/mL): soluble | Hot to RT result ([1]; THF, approx conc. 100 mg/mL): soluble | RT to Cold result ([1]; THF, approx conc. 100 mg/mL): soluble | Hot Result ([1]; THF, approx conc. 100 mg/mL): soluble | RT result ([1]; water, approx conc. 10 mg/mL): insoluble | Hot to RT result ([1]; water, approx conc. 10 mg/mL): insoluble | RT to Cold result ([1]; water, approx conc. 10 mg/mL): insoluble | Hot Result ([1]; water, approx conc. 10 mg/mL): insoluble | light sensitivity of solutions [2]: light sensitive | EC50 ([3]; Iron citrate (50 μM) + BSO (50 μM)): 15 nM | EC50 ([3]; Iron citrate (100 μM) + BSO (25 μM)): 24 nM
